Each block holds one compound with its values, some of them ahead of it. Activity calls are given as the source filed them.
What was measured:
Format in all cases: functional
[1] = biological target: T1, Delta-type opioid receptor (Homo sapiens, UniProt P41143); experiment: DOR antagonists, SAR follow-up, image-based (AID 2357)
Mu-type opioid receptor [2] = biological target: T2, Mu-type opioid receptor (Homo sapiens, UniProt P35372); experiment: HTS Image-Based Screen for Agonists of the MOR Receptor. [Related pubchem assays (depositor defined):AID1777, AID1785, AID1786, AID2133]
[3] = biological target: T3, Kappa-type opioid receptor (Homo sapiens, UniProt P41145); experiment: KOR agonist analogs, imaging readout, SAR follow-up, image-based (AID 2359)
[4] = biological target: T1, Delta-type opioid receptor; experiment: DOR agonists, SAR follow-up, image-based (AID 2370)
[5] = biological target: T1, Delta-type opioid receptor; experiment: HTS Image-Based Screen for Agonists of the DOR Receptor. [Related pubchem assays (depositor defined):AID1777, AID1786, AID2133]
Mu-type opioid receptor [6] = biological target: T2, Mu-type opioid receptor; experiment: MOR agonists by imaging, SAR follow-up, image-based (AID 2352)
[7] = biological target: T3, Kappa-type opioid receptor
Mu-type opioid receptor [8] = biological target: T2, Mu-type opioid receptor; experiment: MOR antagonists, SAR follow-up, image-based (AID 2420);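 note: compounds added before stimulation of receptor with agonist DAMGO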
[9] = biological target: T3, Kappa-type opioid receptor; experiment: SAR analysis of small molecule agonists of the kappa opioid receptor via a luminescent beta-arrestin assay. [Related pubchem assays (depositor defined):AID1777, AID1786, AID1966, AID2133, AID2136, AID2348, AID2352, AID2357, AID2359, AID2370, AID2420, AID2478, AID2491, AID2492, AID2493, AID2497, AID2498, AID2500, AID449737, AID488822, AID488842]
[10] = biological target: Voltage-dependent T-type calcium channel subunit alpha-1H (Homo sapiens, UniProt O95180);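 note: channel activity triggered by adding a high calcium stimulation buffer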
[11] = biological target: T1, Delta-type opioid receptor; experiment: HTS Image-Based Screen for Antagonists of the DOR Receptor. [Related pubchem assays (depositor defined):AID1777, AID1785, AID1786, AID2133]
[12] = biological target: T3, Kappa-type opioid receptor; remark: listed apart in the source
[13] = biological target: T3, Kappa-type opioid receptor; experiment: KOR antagonists by imaging, SAR follow-up, image-based (AID 2348)
Cannabinoid receptor 1 [14] = biological target: T4, Cannabinoid receptor 1 (Homo sapiens, UniProt P21554); experiment: SAR analysis of antagonists of the Cannabinoid Receptor 1 using an Image-Based Assay - Set 2. [Related pubchem assays (depositor defined):AID2013, AID2026]
Cannabinoid receptor 2 [15] = biological target: T5, Cannabinoid receptor 2 (Homo sapiens, UniProt P34972); experiment: SAR analysis of agonists of the Cannabinoid Receptor 2 using an Image-Based Assay. [Related pubchem assays (depositor defined):AID2013, AID2026]
[16] = biological target: T6, G-protein coupled receptor 55 (Homo sapiens, UniProt Q9Y2T6); experiment: GPR55 antagonists blocking LPI-driven arrestin recruitment, primary screen, imaging, U2OS, beta-arrestin-GFP, LPI agonist (AID 2013);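 note: antagonist potency measured as reduced agonist-driven arrestin aggregation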
[17] = biological target: T7, Heat shock factor protein 1 (Mus musculus, UniProt P38532); experiment: inhibition of MG132-induced HSE-luciferase signal, confirmation, cell-based, NIH3T3, luminescence, dose retest (AID 2382);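 note: NIH3T3 fibroblasts with HSF1-driven luciferase reporter stressed by proteasome inhibitor MG132; luminescence from HSF1-driven luciferase expression after 8 hours of MG132 stress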
T7 sequence (P38532 whole entry): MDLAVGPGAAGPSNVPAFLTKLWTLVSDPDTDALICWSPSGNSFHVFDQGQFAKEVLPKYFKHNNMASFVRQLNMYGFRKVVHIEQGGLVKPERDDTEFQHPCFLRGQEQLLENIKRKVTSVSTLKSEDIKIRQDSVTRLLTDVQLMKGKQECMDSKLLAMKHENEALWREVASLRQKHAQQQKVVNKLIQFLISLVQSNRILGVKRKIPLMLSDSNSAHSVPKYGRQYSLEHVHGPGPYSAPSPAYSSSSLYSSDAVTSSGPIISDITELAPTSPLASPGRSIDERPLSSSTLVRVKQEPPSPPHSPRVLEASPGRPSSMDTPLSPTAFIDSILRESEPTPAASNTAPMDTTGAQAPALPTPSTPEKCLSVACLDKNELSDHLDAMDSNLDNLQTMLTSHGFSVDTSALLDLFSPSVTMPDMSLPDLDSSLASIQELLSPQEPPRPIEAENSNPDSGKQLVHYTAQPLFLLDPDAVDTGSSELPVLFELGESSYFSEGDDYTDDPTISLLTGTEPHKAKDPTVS

[18] = biological target: T6, G-protein coupled receptor 55; experiment: GPR55 antagonist potency of analogs, SAR follow-up, imaging, U2OS, beta-arrestin-GFP, LPI agonist, set 2 (AID 2820)
Cannabinoid receptor 1 [19] = biological target: T4, Cannabinoid receptor 1; experiment: SAR analysis of agonists of the Cannabinoid Receptor 1 using an Image-Based Assay - Set 2. [Related pubchem assays (depositor defined):AID2013, AID2026]
[20] = biological target: T8, G-protein coupled receptor 35 (Homo sapiens, UniProt Q9HC97); experiment: SAR analysis of Agonists of the GPR35 Receptor using an Image-Based Assay - Set 2. [Related pubchem assays (depositor defined):AID2013, AID2026]
[21] = biological target: T8, G-protein coupled receptor 35; experiment: SAR analysis of Antagonists of the GPR35 Receptor using an Image-Based Assay - Set 3. [Related pubchem assays (depositor defined):AID2013, AID2026]
Cannabinoid receptor 2 [22] = biological target: T5, Cannabinoid receptor 2; experiment: SAR analysis of antagonists of the Cannabinoid Receptor 2 using an Image-Based Assay. [Related pubchem assays (depositor defined):AID2013, AID2026]

T3 sequence (P41145 whole entry): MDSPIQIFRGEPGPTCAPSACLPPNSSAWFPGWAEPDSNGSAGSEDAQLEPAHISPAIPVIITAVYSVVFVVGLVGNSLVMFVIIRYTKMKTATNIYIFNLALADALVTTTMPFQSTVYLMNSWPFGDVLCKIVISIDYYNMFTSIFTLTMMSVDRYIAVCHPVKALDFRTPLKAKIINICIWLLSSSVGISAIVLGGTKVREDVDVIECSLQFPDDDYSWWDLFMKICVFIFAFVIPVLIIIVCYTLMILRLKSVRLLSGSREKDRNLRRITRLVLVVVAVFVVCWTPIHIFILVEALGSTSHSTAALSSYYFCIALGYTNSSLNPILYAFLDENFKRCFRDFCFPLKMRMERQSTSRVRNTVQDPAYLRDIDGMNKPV
T2 sequence (P35372 whole entry): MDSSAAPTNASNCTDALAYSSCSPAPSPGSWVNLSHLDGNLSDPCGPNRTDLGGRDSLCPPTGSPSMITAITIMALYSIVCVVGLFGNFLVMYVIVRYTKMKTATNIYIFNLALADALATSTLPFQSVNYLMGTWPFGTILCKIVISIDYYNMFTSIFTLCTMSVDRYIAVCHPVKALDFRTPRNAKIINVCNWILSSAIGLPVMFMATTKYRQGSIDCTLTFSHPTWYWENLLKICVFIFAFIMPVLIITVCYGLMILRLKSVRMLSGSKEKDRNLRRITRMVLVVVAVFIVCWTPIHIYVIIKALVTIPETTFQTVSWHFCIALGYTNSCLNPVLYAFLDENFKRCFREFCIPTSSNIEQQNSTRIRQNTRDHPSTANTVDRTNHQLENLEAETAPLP
T1 sequence (P41143 whole entry): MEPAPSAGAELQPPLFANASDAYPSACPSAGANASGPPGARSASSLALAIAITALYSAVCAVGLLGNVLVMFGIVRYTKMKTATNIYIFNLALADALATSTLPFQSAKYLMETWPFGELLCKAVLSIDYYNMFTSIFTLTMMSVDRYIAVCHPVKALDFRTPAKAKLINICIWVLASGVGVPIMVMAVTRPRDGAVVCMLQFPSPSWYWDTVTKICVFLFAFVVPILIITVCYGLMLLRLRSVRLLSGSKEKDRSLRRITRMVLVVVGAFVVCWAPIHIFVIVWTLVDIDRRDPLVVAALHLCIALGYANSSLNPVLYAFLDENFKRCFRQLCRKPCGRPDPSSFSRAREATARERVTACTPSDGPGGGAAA
T6 sequence (Q9Y2T6 whole entry): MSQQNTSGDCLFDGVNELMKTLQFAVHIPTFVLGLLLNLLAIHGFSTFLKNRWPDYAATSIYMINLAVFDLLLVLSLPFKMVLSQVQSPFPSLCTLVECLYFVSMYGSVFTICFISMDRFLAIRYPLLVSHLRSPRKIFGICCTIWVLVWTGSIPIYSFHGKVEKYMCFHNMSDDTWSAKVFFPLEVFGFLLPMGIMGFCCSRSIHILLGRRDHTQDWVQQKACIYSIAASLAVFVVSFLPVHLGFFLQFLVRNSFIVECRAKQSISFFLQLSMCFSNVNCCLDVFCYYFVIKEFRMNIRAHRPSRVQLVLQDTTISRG
T4 sequence (P21554 whole entry): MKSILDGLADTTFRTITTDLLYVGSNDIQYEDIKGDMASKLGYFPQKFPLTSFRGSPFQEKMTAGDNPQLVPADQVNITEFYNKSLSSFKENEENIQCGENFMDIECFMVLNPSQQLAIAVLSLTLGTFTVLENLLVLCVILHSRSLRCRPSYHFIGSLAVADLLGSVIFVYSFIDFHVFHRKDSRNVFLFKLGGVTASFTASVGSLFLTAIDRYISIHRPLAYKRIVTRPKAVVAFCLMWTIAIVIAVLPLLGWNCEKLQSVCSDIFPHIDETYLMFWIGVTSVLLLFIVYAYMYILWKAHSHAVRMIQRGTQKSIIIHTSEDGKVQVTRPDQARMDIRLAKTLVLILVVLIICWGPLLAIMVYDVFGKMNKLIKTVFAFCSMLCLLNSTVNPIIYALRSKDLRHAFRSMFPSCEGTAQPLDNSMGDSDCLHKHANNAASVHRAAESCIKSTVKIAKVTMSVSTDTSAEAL
T5 sequence (P34972 whole entry): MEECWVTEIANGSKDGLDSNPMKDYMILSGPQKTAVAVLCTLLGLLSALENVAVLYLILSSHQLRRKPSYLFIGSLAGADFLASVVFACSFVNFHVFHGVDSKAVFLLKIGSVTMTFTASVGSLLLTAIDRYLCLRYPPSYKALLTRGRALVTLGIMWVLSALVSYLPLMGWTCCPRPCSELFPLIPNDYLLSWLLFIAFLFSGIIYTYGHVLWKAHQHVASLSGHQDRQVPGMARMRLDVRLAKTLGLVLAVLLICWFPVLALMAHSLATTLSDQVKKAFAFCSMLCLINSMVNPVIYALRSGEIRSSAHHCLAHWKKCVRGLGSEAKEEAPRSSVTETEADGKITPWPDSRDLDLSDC
T8 sequence (Q9HC97 whole entry): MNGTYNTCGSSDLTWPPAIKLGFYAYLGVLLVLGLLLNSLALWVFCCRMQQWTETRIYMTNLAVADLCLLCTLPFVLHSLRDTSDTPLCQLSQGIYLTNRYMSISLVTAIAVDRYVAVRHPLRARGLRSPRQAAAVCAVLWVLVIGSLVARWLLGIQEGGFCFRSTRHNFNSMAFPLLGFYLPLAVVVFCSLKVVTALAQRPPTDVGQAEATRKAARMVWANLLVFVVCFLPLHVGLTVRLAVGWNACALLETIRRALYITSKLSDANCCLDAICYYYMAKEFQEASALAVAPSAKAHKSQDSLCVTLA
Chain of Voltage-dependent T-type calcium channel subunit alpha-1H (O95180 whole entry): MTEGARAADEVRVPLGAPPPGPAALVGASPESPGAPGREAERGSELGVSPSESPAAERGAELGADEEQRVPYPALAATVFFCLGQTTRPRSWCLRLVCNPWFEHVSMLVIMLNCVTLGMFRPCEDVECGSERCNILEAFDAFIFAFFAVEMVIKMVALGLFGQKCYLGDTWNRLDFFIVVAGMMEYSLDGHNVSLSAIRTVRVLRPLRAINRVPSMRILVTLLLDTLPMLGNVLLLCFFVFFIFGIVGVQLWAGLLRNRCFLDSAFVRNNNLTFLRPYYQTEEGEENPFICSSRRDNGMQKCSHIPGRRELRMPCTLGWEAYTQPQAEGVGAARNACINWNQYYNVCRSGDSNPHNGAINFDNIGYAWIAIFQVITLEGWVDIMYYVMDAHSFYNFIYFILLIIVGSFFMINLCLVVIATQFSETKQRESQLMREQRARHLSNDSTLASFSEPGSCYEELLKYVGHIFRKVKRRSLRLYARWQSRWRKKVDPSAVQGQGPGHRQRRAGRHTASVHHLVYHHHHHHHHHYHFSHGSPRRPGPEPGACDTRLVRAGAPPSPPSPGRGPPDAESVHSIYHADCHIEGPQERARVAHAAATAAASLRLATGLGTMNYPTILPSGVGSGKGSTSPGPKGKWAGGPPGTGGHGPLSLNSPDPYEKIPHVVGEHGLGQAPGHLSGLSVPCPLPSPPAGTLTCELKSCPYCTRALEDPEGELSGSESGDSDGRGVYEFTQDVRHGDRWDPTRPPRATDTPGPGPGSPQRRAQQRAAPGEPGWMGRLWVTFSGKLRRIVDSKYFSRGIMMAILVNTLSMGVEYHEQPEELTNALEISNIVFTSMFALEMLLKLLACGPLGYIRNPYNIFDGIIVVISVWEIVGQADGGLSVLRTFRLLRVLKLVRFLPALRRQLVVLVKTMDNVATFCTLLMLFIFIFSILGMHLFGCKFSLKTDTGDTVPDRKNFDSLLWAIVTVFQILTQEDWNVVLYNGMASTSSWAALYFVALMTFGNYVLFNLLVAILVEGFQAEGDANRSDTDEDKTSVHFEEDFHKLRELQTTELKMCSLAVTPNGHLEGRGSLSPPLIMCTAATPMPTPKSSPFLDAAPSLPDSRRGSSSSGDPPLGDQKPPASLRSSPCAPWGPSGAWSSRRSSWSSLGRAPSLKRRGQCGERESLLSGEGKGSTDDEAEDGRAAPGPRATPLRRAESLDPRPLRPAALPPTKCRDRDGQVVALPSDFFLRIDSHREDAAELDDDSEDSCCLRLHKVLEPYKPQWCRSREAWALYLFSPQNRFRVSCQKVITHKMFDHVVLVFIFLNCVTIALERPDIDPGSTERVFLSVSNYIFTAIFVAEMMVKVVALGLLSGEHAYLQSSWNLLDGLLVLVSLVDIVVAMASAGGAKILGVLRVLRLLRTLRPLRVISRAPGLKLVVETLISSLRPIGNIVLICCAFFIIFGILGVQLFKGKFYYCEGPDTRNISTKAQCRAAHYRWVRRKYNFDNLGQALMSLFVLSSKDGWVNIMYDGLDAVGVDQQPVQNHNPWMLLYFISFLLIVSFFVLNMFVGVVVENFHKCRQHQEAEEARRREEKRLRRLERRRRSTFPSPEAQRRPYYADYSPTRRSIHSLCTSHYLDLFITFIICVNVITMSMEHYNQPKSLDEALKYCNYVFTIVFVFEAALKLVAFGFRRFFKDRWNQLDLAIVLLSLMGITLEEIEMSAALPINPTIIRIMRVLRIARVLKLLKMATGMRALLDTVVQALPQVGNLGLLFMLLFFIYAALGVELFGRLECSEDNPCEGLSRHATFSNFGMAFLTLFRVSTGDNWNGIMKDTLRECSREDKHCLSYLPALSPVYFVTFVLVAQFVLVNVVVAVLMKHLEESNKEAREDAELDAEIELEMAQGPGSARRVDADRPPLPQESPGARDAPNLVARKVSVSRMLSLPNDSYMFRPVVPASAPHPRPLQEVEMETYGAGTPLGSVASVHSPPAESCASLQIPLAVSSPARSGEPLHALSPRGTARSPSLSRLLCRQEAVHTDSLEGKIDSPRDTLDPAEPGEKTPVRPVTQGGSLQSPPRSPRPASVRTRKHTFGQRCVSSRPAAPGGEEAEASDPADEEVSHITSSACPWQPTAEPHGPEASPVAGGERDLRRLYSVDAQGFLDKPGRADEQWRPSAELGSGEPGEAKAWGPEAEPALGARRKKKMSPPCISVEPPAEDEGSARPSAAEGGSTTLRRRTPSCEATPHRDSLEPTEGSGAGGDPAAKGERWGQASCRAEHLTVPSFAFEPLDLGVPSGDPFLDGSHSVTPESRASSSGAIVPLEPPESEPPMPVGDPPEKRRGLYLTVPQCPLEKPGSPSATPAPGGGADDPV

IC50 [1]: > 32 µM (inactive)
EC50 (Mu-type opioid receptor [2]): > 32 µM (inactive)
EC50 [3]: 16.3 µM (inactive)
EC50 [4]: > 32 µM (inactive)
EC50 [5]: > 32 µM (inactive)
EC50 (Mu-type opioid receptor [6]): > 32 µM (inactive)
EC50 [7]: 20.3 µM
IC50 (Mu-type opioid receptor [8]): > 32 µM (inactive)
EC50 [9]: > 10 µM (inactive)
EC50 [10]: 7.53 µM (active)
IC50 [11]: > 32 µM (inactive)
EC50 [12]: 11.9 µM
IC50 [13]: > 32 µM (inactive)
Compound: COc1cc(Cl)c(C)cc1NC(=O)CSc1nnc(-c2ccccn2)n1Cc1ccco1

IC50 (Cannabinoid receptor 1 [14]): 22 µM (inactive)
EC50 (Cannabinoid receptor 2 [15]): > 32 µM (inactive)
IC50 [16]: 1.74 µM (active)
EC50 [17]: > 195 µM (not active)
IC50 [18]: 0.506 µM (active)
EC50 (Cannabinoid receptor 1 [19]): > 32 µM (inactive)
EC50 [20]: > 32 µM (inactive)
IC50 [21]: > 32 µM (inactive)
IC50 (Cannabinoid receptor 2 [22]): > 32 µM (inactive)
Compound: CCN1C(=O)C(c2ccc(O)cc2)(c2ccc(O)cc2)c2ccccc21

From ChEMBL document CHEMBL1201862, “PubChem BioAssay data set” (2004)
